Results published in patent US8952024B2, “Herbicidal pyrimidone derivatives” (E I du Pont de Nemours and Company, priority 2009, dated 2015).

Legend:
Assay type in all cases: in vivo
[1] = system: barnyardgrass (Echinochloa crus-galli); test: Test D pre-/postemergence plant response
From the text: (§1) Seeds of plant species selected from bermudagrass (Cynodon dactylon), Surinam grass (Brachiaria decumbens), large crabgrass (Digitaria sanguinalis), green foxtail (Setaria viridis), goosegrass (Eleusine indica), johnsongrass (Sorghum halepense), kochia (Kochia scoparia), morningglory (pitted morningglory, Ipomoea lacunosa), nutsedge (purple nutsedge, Cyperus rotundus), ragweed (common ragweed, Ambrosia elatior), black mustard (Brassica nigra), guineagrass (Panicum maximum), dallisgrass (Paspalum dilatatum), barnyardgrass (Echinochloa crus-galli), sandbur (southern sandbur, Cenchrus echinatus), sowthistle (common sowthistle, Sonchus oleraceous), prickly sida (Sida spinosa), Italian ryegrass (Lolium multiflorum), purslane (common purslane, Portulaca oleracea), signalgrass (broadleaf signalgrass, Brachiaria platyphylla), groundsel (common groundsel, Senecio vulgaris), chickweed (common chickweed, Stellaria media), dayflower (Virginia (VA) dayflower, Commelina virginica), bluegrass (annual bluegrass, Poa annua), naked crabgrass (Digitaria nuda), itchgrass (Rottboellia cochinchinensis), quackgrass (Elytrigia repens), field bindweed (Convolvulus arvensis), spanishneedles (Bidens bipinnata), mallow (common mallow, Malva sylvestris) and Russian thistle (Salsola kali), were planted into a blend of loam soil and sand and treated preemergence with test chemicals formulated in a non-phytotoxic solvent mixture which included a surfactant. At the same time, plants from these weed species were treated with postemergence applications of the test chemicals formulated in the same manner. Plants ranged in height from 2 to 18 cm (1- to 4-leaf stage) for postemergence treatments.
(§2) Treated plants and controls were maintained in a greenhouse for 14 to 21 days, after which time all species were visually evaluated and compared to controls. Plant response ratings, summarized in Table D, are based on a scale of 0 to 100 where 0 is no effect and 100 is complete control. A dash (-) response means no test result.

[2] = system: prickly sida (Sida spinosa); test: Test D pre-/postemergence plant response
From the text: as §1, §2

[3] = system: Italian ryegrass (Lolium multiflorum); test: Test D pre-/postemergence plant response
From the text: as §1, §2

[4] = system: Russian thistle (Salsola kali); test: Test D pre-/postemergence plant response
From the text: as §1, §2

[5] = system: Surinam grass (Brachiaria decumbens); test: Test D pre-/postemergence plant response
From the text: as §1, §2

[6] = system: black mustard (Brassica nigra); test: Test D pre-/postemergence plant response
From the text: as §1, §2

[7] = system: winter barley (Hordeum vulgare); test: Test B postemergence plant response; conditions: Postemergence
In short: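 Plants grown in peat/vermiculite medium were sprayed postemergence at 2–18 cm height (1- to 4-leaf stage). After 13–15 days in the greenhouse, response was rated visually against untreated controls on a 0–100 scale (0 no effect, 100 complete control).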

[8] = Postemergence, 31 g ai/ha, scale 0 to 100 (0 no effect, 100 complete control)
[9] = Postemergence, 62 g ai/ha, scale 0 to 100 (0 no effect, 100 complete control)
[10] = Postemergence, 125 g ai/ha, scale 0 to 100 (0 no effect, 100 complete control)
[11] = Postemergence, 16 g ai/ha, scale 0 to 100
[12] = Preemergence, 16 g ai/ha, scale 0 to 100, 0 no effect, 100 complete control
[13] = Preemergence, 31 g ai/ha, scale 0 to 100 (0 no effect, 100 complete control)
[14] = Preemergence, 62 g ai/ha, scale 0 to 100
[15] = Preemergence, 125 g ai/ha, scale 0 to 100
[16] = Postemergence, 31 g ai/ha, scale 0 to 100
[17] = 31 g ai/ha, 0 to 100 scale (0 no effect, 100 complete control)
[18] = 62 g ai/ha, scale 0 to 100 (0 no effect, 100 complete control)
[19] = 125 g ai/ha, scale 0 to 100 (0 no effect, 100 complete control)
[20] = 250 g ai/ha, scale 0 to 100 (0 no effect, 100 complete control), 13 to 15 days
[21] = Postemergence, 250 g ai/ha, scale 0 to 100 (0 no effect, 100 complete control)

With `COCCn1c(-c2cccc(C)c2)ncc(C(=O)C2=C(O)C3CCC(C3)C2=O)c1=O` (stereo not drawn) [Compound 233] the “Plant response rating, Barnyardgrass” value [1, 8] was 75, the “Plant response rating, Barnyardgrass” value [1, 9] was 85 and the “Plant response rating, Barnyardgrass” value [1, 10] was 85. For the same compound, the “Plant response rating, Barnyardgrass” value [1, 11] was 65, the “Plant response rating, Barnyardgrass” value [1, 12] was 0 and the “Plant response rating, Barnyardgrass” value [1, 13] was 0. For the same compound, the “Plant response rating, Barnyardgrass” value [1, 14] was 5, the “Plant response rating, Barnyardgrass” value [1, 15] was 40 and the “Plant response rating, Prickly Sida” value [2, 16] was 50. For the same compound, the “Plant response rating, Prickly Sida” value [2, 9] was 50, the “Plant response rating, Prickly Sida” value [2, 10] was 60 and the “Plant response rating, Prickly Sida” value [2, 11] was 30. For the same compound, the “Plant response rating, Prickly Sida” value [2, 12] was 0, the “Plant response rating, Prickly Sida” value [2, 13] was 0 and the “Plant response rating, Prickly Sida” value [2, 14] was 0. The “Plant response rating, Prickly Sida” value [2, 15] was 70, the “Plant response rating, Ryegrass, Italian” value [3, 16] was 0 and the “Plant response rating, Ryegrass, Italian” value [3, 9] was 5. The “Plant response rating, Ryegrass, Italian” value [3, 10] was 5, the “Plant response rating, Ryegrass, Italian” value [3, 11] was 0 and the “Plant response rating, Ryegrass, Italian” value [3, 12] was 0. For the same compound, the “Plant response rating, Ryegrass, Italian” value [3, 13] was 0, the “Plant response rating, Ryegrass, Italian” value [3, 15] was 20 and the “Plant response rating, Russian Thistle” value [4, 10] was 10. The “Plant response rating, Russian Thistle” value [4, 11] was 0, the “Plant response rating, Russian Thistle” value [4, 12] was 50 and the “Plant response rating, Russian Thistle” value [4, 13] was 65. For the same compound, the “Plant response rating, Russian Thistle” value [4, 15] was 100, the “Plant response rating, Russian Thistle” value ([4]; Preemergence, rate not given, scale 0 to 100, 0 no effect, 100 complete control) was 75 and the “Plant response rating, Surinam Grass” value [5, 9] was 50. For the same compound, the “Plant response rating, Surinam Grass” value [5, 10] was 60, the “Plant response rating, Surinam Grass” value [5, 11] was 30 and the “Plant response rating, Surinam Grass” value [5, 12] was 0. The “Plant response rating, Surinam Grass” value [5, 13] was 5, the “Plant response rating, Surinam Grass” value [5, 15] was 100 and the “Plant response rating, Black Mustard” value [6, 8] was 50. The “Plant response rating, Black Mustard” value [6, 9] was 50, the “Plant response rating, Black Mustard” value [6, 10] was 100 and the “Plant response rating, Black Mustard” value [6, 11] was 20. For the same compound, the “Plant response rating, Black Mustard” value [6, 12] was 0, the “Plant response rating, Black Mustard” value [6, 13] was 0 and the “Plant response rating, Black Mustard” value [6, 14] was 20. The “Plant response rating, Black Mustard” value [6, 15] was 65, the “Plant response rating, Barley” value [7, 17] was 0 and the “Plant response rating, Barley” value [7, 18] was 0. For the same compound, the “Plant response rating, Barley” value [7, 19] was 10 and the “Plant response rating, Barley” value [7, 20] was 10.

For `COCCn1c(-c2cccc(F)c2)ncc(C(=O)C2=C(O)C3CCC(C3)C2=O)c1=O` (stereo not drawn) [Compound 235], the “Plant response rating, Barnyardgrass” value [1, 8] was 80, the “Plant response rating, Barnyardgrass” value [1, 9] was 80 and the “Plant response rating, Barnyardgrass” value [1, 10] was 95. The “Plant response rating, Barnyardgrass” value [1, 21] was 95, the “Plant response rating, Prickly Sida” value [2, 16] was 65 and the “Plant response rating, Prickly Sida” value [2, 9] was 65. The “Plant response rating, Prickly Sida” value [2, 10] was 70, the “Plant response rating, Prickly Sida” value [2, 21] was 75 and the “Plant response rating, Ryegrass, Italian” value [3, 16] was 5. The “Plant response rating, Ryegrass, Italian” value [3, 9] was 5, the “Plant response rating, Ryegrass, Italian” value [3, 10] was 5 and the “Plant response rating, Ryegrass, Italian” value [3, 21] was 35. The “Plant response rating, Russian Thistle” value [4, 16] was 30, the “Plant response rating, Russian Thistle” value [4, 9] was 30 and the “Plant response rating, Russian Thistle” value [4, 10] was 50. The “Plant response rating, Russian Thistle” value [4, 21] was 60, the “Plant response rating, Surinam Grass” value [5, 16] was 75 and the “Plant response rating, Surinam Grass” value [5, 9] was 75. For the same compound, the “Plant response rating, Surinam Grass” value [5, 10] was 75, the “Plant response rating, Surinam Grass” value [5, 21] was 85 and the “Plant response rating, Black Mustard” value [6, 8] was 80. The “Plant response rating, Black Mustard” value [6, 9] was 80, the “Plant response rating, Black Mustard” value [6, 10] was 98 and the “Plant response rating, Black Mustard” value [6, 21] was 98. The “Plant response rating, Barley” value [7, 17] was 0, the “Plant response rating, Barley” value [7, 18] was 30 and the “Plant response rating, Barley” value [7, 19] was 40.

In the case of `COCCCn1c(-c2cccc(F)c2)ncc(C(=O)C2=C(O)C3CCC(C3)C2=O)c1=O` (stereo not drawn) [Compound 238], the “Plant response rating, Barnyardgrass” value [1, 8] is reported as 75, the “Plant response rating, Barnyardgrass” value [1, 9] is reported as 80 and the “Plant response rating, Barnyardgrass” value [1, 10] is reported as 85. For the same compound, the “Plant response rating, Barnyardgrass” value [1, 21] was 95, the “Plant response rating, Prickly Sida” value [2, 16] was 30 and the “Plant response rating, Prickly Sida” value [2, 9] was 30. The “Plant response rating, Prickly Sida” value [2, 10] was 50, the “Plant response rating, Prickly Sida” value [2, 21] was 65 and the “Plant response rating, Ryegrass, Italian” value [3, 16] was 5. The “Plant response rating, Ryegrass, Italian” value [3, 9] was 5, the “Plant response rating, Ryegrass, Italian” value [3, 10] was 5 and the “Plant response rating, Ryegrass, Italian” value [3, 21] was 5. For the same compound, the “Plant response rating, Russian Thistle” value [4, 16] was 30, the “Plant response rating, Russian Thistle” value [4, 9] was 40 and the “Plant response rating, Russian Thistle” value [4, 10] was 50. For the same compound, the “Plant response rating, Russian Thistle” value [4, 21] was 50, the “Plant response rating, Surinam Grass” value [5, 16] was 75 and the “Plant response rating, Surinam Grass” value [5, 9] was 75. For the same compound, the “Plant response rating, Surinam Grass” value [5, 10] was 75, the “Plant response rating, Surinam Grass” value [5, 21] was 85 and the “Plant response rating, Black Mustard” value [6, 8] was 80. The “Plant response rating, Black Mustard” value [6, 9] was 95, the “Plant response rating, Black Mustard” value [6, 10] was 98 and the “Plant response rating, Black Mustard” value [6, 21] was 98. The “Plant response rating, Barley” value [7, 17] was 10, the “Plant response rating, Barley” value [7, 18] was 30 and the “Plant response rating, Barley” value ([7]; 125 g ai/ha, scale 0 (no effect) to 100 (complete control), 13 to 15 days) was 35. For the same compound, the “Plant response rating, Barley” value [7, 20] was 40.
